In patent US20170239212A1, “[…] AND USE THEREOF AS ANTIVIRAL AGENTS” (priority 2014, published 2017):

Columns and labels:
[1] = tested on: LNCaP human prostate cancer cells; test: Apoptosis of LNCaP cells (flow cytometry, Yo-Pro-1/7-AAD); format: cell-based; settings: 48 hr; for Induction of apoptosis in LNCaP cells: compound alone
Procedure: FIGS. 12A-12D show the effect of different compounds on the proliferation and apoptosis of LNCaP cells. […] Time-elapsed images were taken with an Incucyte imaging system every hour for 4 days. The proliferation of LNCaP cells is presented as increase in confluency (read by the instrument) at 80 hrs. Data represent the means±SEM of three independent experiments. […] Apoptosis was measured 2 days after treatment by flow cytometry using 7-AAD and Yo-Pro-1 as described in Materials and Methods. Data represent the means±SEM of three independent experiments.
(§1) LNCaP cells treated for 48 hours with the different drugs or with DMSO as control were washed and re-suspended in phosphate buffered saline. Yo-Pro-1 (Invitrogen, Carlsbad, Calif.) was added to a final concentration of 1 μM and the cells were incubated for 20 min at 4° C. in the dark. 7-Aminoactinomycin D (7-AAD) (Invitrogen, Carlsbad, Calif.) was then added at a 5 μg/mL final concentration 10 minutes before analysis by flow cytometry using the FACSCalibur system (Becton Dickinson, Mountain View, Calif.). Data were analyzed with FlowJo 7 (Tree Star Inc., Ashland, Oreg.). The Yo-Pro-1 positive cells were considered apoptotic and were expressed as % of total cells. Western blot analysis of treated LNCaP cell lysates was performed as described previously using rabbit anti-cFos, rabbit anti-PKC delta, rabbit anti-phospho-tyrosine 311 of PKC delta or rabbit anti-3-actin antibodies.

PKC delta = test: Phosphorylation of PKC delta at Y311 in LNCaP cells (western blot); format: cell-based, human; settings: 2, 5 or 8 hrs treatment
Procedure: FIGS. 14A-14C show the induction of cFos and phosphorylation of PKC6 at Y311 in LNCaP cells. […] The proteins from the lysates were separated by 10% SDS-PAGE, electroblotted to nitrocellulose membranes and probed with anti-cFos primary and anti-rabbit secondary antibodies, followed by ECL visualization. Data are representative of four independent experiments. […] The cFos signal was normalized to the 3-actin signal to correct for loading and the response induced by 100 nM PMA at 2 hrs was taken as 100%. Data represent the means±SEM of four independent experiments. […] Data represent the means±SEM of three independent experiments.
as §1, with “Western blot analysis of treated LNCaP cell lysates was performed as described previously using rabbit anti-cFos, rabbit anti-PKC delta, rabbit anti-phospho-tyrosine 311 of PKC delta or rabbit anti-3-actin antibodies.” left out

U937 cells [2] = test: Attachment of U937 cells; format: cell-based, human; settings: 72 hours; for Block of PMA-induced attachment of U937 cells: 10 nM PMA with different concentrations of compound; for Attachment of U937 cells (attached cells as percent of total): compound alone
Procedure: (§2) U937 cells (Sundstrom, C.; Nilsson, K.: Establishment and characterization of a human histiocytic lymphoma cell line (U-937). Int. J. Cancer 1976, 17: 565-577), purchased from ATCC (Manassas, Va.) and cultured in RPMI-1640 medium supplemented with 10% FBS (ATCC, Manassas, Va.), were plated in 35 mm dishes at a density of 2×10^5 living cells/ml and treated with different concentrations of the drugs or DMSO. After 72 hours, the number of cells in the supernatant (non-attached cells) and the number of attached cells (after trypsinization) were counted using a Beckman particle counter (Beckman Coulter Inc., Fullerton, Calif.). The number of attached cells is expressed as percent of total cells (FIGS. 8-10).
(§3) U937 cells were treated with PMA (0.1-100 nM), bryostatin 1 (1-1000 nM), the indicated compound (1-1000 nM), 10 nM PMA with different concentrations of bryostatin 1 (1-1000 nM) or 10 nM PMA with different concentrations of indicated compound (1-1000 nM) for 72 hours. The number of attached cells and total cells were counted and the attached cells were graphed as percent of total cells. The bars and error bars represent the average and the standard error of the mean of five independent experiment (FIGS. 8-10).
(§4) U937 cells (Sundstrom and Nilsson, 1976), purchased from ATCC (Manassas, Va.) and cultured in RPMI-1640 medium supplemented with 10% FBS (ATCC, Manassas, Va.), were plated in 35 mm dishes at a density of 1×10^5 living cells/ml and treated with different concentrations of the drugs or DMSO. After 72 hours, the number of cells in the supernatant (non-attached cells) and the number of attached cells (after trypsinization) were counted using a particle counter. The number of attached cells is expressed as percent of total cells.
(§5) U937 cells were treated with PMA (0.01-100 nM), bryostatin 1 (0.1-1000 nM), analogue 12 (MERLE 28) (0.1-1000 nM), 10 nM PMA with different concentrations of bryostatin 1 (0.1-1000 nM) or 10 nM PMA with different concentrations of analogue 12 (0.1-1000 nM). The number of attached cells and total cells were counted and the attached cells were graphed as percent of total cells. The bars and error bars represent the average and the standard error of the mean of at least three independent experiments.
as §4
as §3, with “at least three” for “five”, “experiments.” for “experiment (FIGS. 8-10).”

U937 cells [3] = test: Inhibition of U937 cell proliferation; format: cell-based, human; settings: for Block of PMA inhibition of U937 cell proliferation: 10 nM PMA with different concentrations of compound; for Inhibition of U937 cell proliferation (total cells as % of control): compound alone, 72 hours
Procedure: as §2
as §3, with “nM).” for “nM) for 72 hours.”, “attached and non-attached” for “attached”, “was” for “and total cells were”, “number” for “attached cells were graphed as percent”, “cells was expressed as % of control.” for “cells.”, “experiments” for “experiment”
as §4
as §5, with “The numbers” for “The number”, “attached” for “attached cells”, “and non-attached” for “and total”, “the number” for “the attached cells were graphed as percent”, “total cells was expressed as % of control.” for “total cells.”
as §4
U937 cells were treated with PMA (0.1-100 nM), bryostatin 1 (1-1000 nM), the indicated compound (1-1000 nM), 10 nM PMA with different concentrations of bryostatin 1 (1-1000 nM) or 10 nM PMA with different concentrations of indicated compound (1-1000 nM). The number of attached and non-attached cells was counted and the number of total cells was expressed as % of control. The bars and error bars represent the average and the standard error of the mean of at least three independent experiments.

| SMILES | Block of PMA-induced apoptosis in LNCaP cells ([1]; 300 nM PMA combined with 1000 nM compound) | Induction of apoptosis in LNCaP cells [1] | Phosphorylation of PKC delta at Y311 in LNCaP cells (PKC delta) | Block of PMA-induced attachment of U937 cells (U937 cells [2]) | Block of PMA-induced attachment of U937 cells (U937 cells [2]; listed as bryostatin 1) | Attachment of U937 cells (attached cells as percent of total) (U937 cells [2]) | Attachment of U937 cells (attached cells as percent of total) (U937 cells [2]; listed as bryostatin 1) | Block of PMA inhibition of U937 cell proliferation (U937 cells [3]) | Block of PMA inhibition of U937 cell proliferation (U937 cells [3]; listed as bryostatin 1) | Inhibition of U937 cell proliferation (total cells as % of control) (U937 cells [3]) | Inhibition of U937 cell proliferation (total cells as % of control) (U937 cells [3]; listed as bryostatin 1) |
| --- | --- | --- | --- | --- | --- | --- | --- | --- | --- | --- | --- |
| CCC/C=C/C=C/C(=O)O[C@H]1/C(=C/C(=O)OC)C[C@H]2C[C@H]([C@@H](C)O)OC(=O)C[C@H](O)C[C@@H]3C[C@H](OC(C)=O)C(C)(C)[C@](O)(C[C@@H]4C/C(=C/C(=O)OC)C[C@H](/C=C/C(C)(C)[C@]1(O)O2)O4)O3 [Bryostatin 1] | largely blocked the induction of apoptosis by PMA | had little effect | only very weak phosphorylation | blocks the effect of the phorbol ester | blocks the effect of the phorbol ester in a dose-dependent manner | has much less effect on either response | much diminished effect | blocks the effect of the phorbol ester | able to block the effect of PMA in a dose dependent manner | has much less effect on either response | not strongly antiproliferative |
| CCCCCCCCCCCCCC(=O)O[C@@H]1[C@@H](C)[C@@]2(O)[C@@H](C=C(CO)C[C@]3(O)C(=O)C(C)=C[C@@H]23)[C@@H]2C(C)(C)[C@]12OC(C)=O [PMA, phorbol 12-myristate 13-acetate] |  | induced apoptosis | rapid phosphorylation |  |  | induces attachment |  |  |  | inhibits cell proliferation |  |
